Test system: HSSY-II complex spheroid growth, percent test/control
Test: Anticancer human tumor HSSY-II cell line growth inhibition [Asc];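 also: spheroids exposed to drug for 7 days before reading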
Conditions: for IC50: curve of first compound; for viability, T/C: stronger effect = lower value
Description: Multicellular complex tumor spheroid response to apoptosis pathway targeting inhibitors Alrizomadlin, Pelcitoclax, and Dasminapant in combination with a variety of drugs and investigational agents in selected tumor cell lines
The MDM2 inhibitor alrizomadlin, the Bcl-2/Bcl-xL inhibitor pelcitoclax, and the IAPs inhibitor dasminapant were evaluated both individually and in combination with standard of care and investigational anticancer small molecules within a complex spheroid model of solid tumors. . Complex spheroids include a stromal component modeled by human endothelial cells (HUVEC) and fibroblasts modeled by human mesenchymal stem cells (MSCs). The concentration ranges selected for each drug and investigational agent were based upon clinically achievable concentrations if the clinical Cmax of the agent was known.
Compounds. The drugs and investigational agents: alrizomadlin (APG-115; NSC831270), pelcitoclax (APG-1252; NSC835773), dasminapant (APG-1387;NSC834197), TAK-243 (NSC785004), copanlisib (NSC809693), olaparib (NSC753686), talazoparib (NSC767125), cobimetinib (NSC 768068), eltanexor (KPT-8602, NSC 794443), abemaciclib (NSC 768073), sotorasib (NSC818433), adagrasib (NSC 831453), MRTX-1133 (NSC 836407), Iadademestat (ORY1001, NSC 806812), and RMC-4630 (NSC839698), were obtained from the NCI Developmental Therapeutics Program Chemical Repository. The FDA-approved anticancer drug set is available from the Developmental Therapeutics Program at https://dtp.cancer.gov/organization/dscb/obtaining/available plates.htm. […] The stock solutions were prepared in dimethyl sulfoxide (DMSO, Sigma-Aldrich, St. Louis, MO, cat. D2650) at 800-fold the tested concentration and stored at -70 degrees C prior to their use. All drugs and investigational agents were tested over a range starting from a high concentration at or near the clinical Cmax and decreasing in half-log increments. If the clinical Cmax for an agent had not been determined, the highest concentration tested was 10 microM.
The patient-derived cancer (PDC) cell lines include five colon adenocarcinomas: 186277-243-T-J2-PDC, 616215-338-R-J1-PDC, 439559-082-T-J2-PDC, 463943-066-T-J2-PDC, and 519858-162-T-J1-PDC; three pancreatic carcinomas: 323965-272-R-J2-PDC, 521955-158-R6-J3-PDC, and 521955-158-R2-J5-PDC; two uterine sarcomas: 327498-152-R-J2-PDC and 993429-296-R-J1-PDC; two rhabdomyosarcomas: 755483-174-R-J1-PDC and 772245-204-R-J1-PDC; two soft tissue sarcomas: 126254-015-R-J1-PDC and 494315-158-R-J1-PDC; two malignant fibrous histiocytomas: 317291-083-R-J1-PDC and 596521-263-R-J1-PDC; two breast carcinomas: 171881-019-R-J1-PDC and 885512-296-R-J2-PDC; and one ovarian carcinoma: 6556581-035-R-J-PDC were obtained from the NCI PDMR, (https://pdmr.cancer.gov). The established cell lines HSSY-2 synovial sarcoma (RRID:CVCL 8719), SYO-1 synovial sarcoma (RRID:CVCL_7146), MPNST malignant peripheral neural sheath tumor were obtained from the Sloan Kettering Institute. The following established cell lines were purchased from the American Type Culture Collection (ATCC, Manassas, VA), Sor the received from the NCI repository:, PANC-1 pancreatic carcinoma (CRL-1469, RRID:CVCL_0480), OVCAR-5 ovarian carcinoma (RRID:CVCL_1628), OVCAR-8 ovarian carcinoma (RRID:CVCL_1629), , MCF-7 breast carcinoma (CRL-12584, RRID:CVCL_0031), MDA-MB-231 breast carcinoma (CRL-12532, RRID:CVCL_0062), NCI-H1876 small cell lung carcinoma (CRL-5902, RRID:CVCL_1503), NCI-H510A small cell lung carcinoma (HTB-184, RRID:CVCL_1565), NCI-H1417 (CRL-5869, RRID:CVCL_1469), and NCI-H196 small cell lung carcinoma (CRL-5823, RRID:CVCL_1509). Dr. Peter Houghton (Greehey Children's Cancer Research Institute, University of Texas Health Science Center, San Antonio, TX) provided Rh-18 rhabdomyosarcoma (RRID:CVCL_1659). Pooled donor human umbilical vein endothelial cells (HUVEC, Lonza, cat. CC-2519) and human mesenchymal stem cells (hMSC, Lonza, cat. PT-2501) were purchased from Lonza (Walkersville, MD).
Cell Culture. […]

`CCN1CCN(Cc2ccc(Nc3ncc(F)c(-c4cc(F)c5nc(C)n(C(C)C)c5c4)n3)nc2)CC1` + CCN1C(C(=O)NC23CCC(C(=O)O)(CC2)CC3)C(c2cccc(Cl)c2F)C2(C(=O)Nc3cc(Cl)ccc32)C12CCCCC2 was tested, and the IC50 (second compound 0.03 µM) was 83.5 nM, the IC50 (second compound 0.0949 µM) was 16.8 nM and the IC50 (second compound 0.3 µM) was less than 3.16 nM. It also gave an IC50 (second compound 0.949 µM) of less than 3.16 nM, an IC50 (second compound 3 µM) of less than 3.16 nM and a viability, T/C (second compound 0.03 µM, first compound 0.00316 µM) of 90.3%. It also gave a viability, T/C (second compound 0.03 µM, first compound 0.01 µM) of 72.4%, a viability, T/C (second compound 0.03 µM, first compound 0.0316 µM) of 58.7% and a viability, T/C (second compound 0.03 µM, first compound 0.1 µM) of 49.1%. For the same compound, the viability, T/C (second compound 0.03 µM, first compound 0.316 µM) was 39.5%, the viability, T/C (second compound 0.03 µM, first compound 1 µM) was 22.7% and the viability, T/C (second compound 0.0949 µM, first compound 0.00316 µM) was 63%. The viability, T/C (second compound 0.0949 µM, first compound 0.01 µM) was 57.5%, the viability, T/C (second compound 0.0949 µM, first compound 0.0316 µM) was 41.1% and the viability, T/C (second compound 0.0949 µM, first compound 0.1 µM) was 34%. For the same compound, the viability, T/C (second compound 0.0949 µM, first compound 0.316 µM) was 26.1%, the viability, T/C (second compound 0.0949 µM, first compound 1 µM) was 12.1% and the viability, T/C (second compound 0.3 µM, first compound 0.00316 µM) was 27.4%. It also gave a viability, T/C (second compound 0.3 µM, first compound 0.01 µM) of 22.6%, a viability, T/C (second compound 0.3 µM, first compound 0.0316 µM) of 24.6% and a viability, T/C (second compound 0.3 µM, first compound 0.1 µM) of 19.2%. For the same compound, the viability, T/C (second compound 0.3 µM, first compound 0.316 µM) was 13.8%, the viability, T/C (second compound 0.3 µM, first compound 1 µM) was 5.79% and the viability, T/C (second compound 0.949 µM, first compound 0.00316 µM) was 8.49%. It also gave a viability, T/C (second compound 0.949 µM, first compound 0.01 µM) of 8.58%, a viability, T/C (second compound 0.949 µM, first compound 0.0316 µM) of 8.12% and a viability, T/C (second compound 0.949 µM, first compound 0.1 µM) of 6.47%. The viability, T/C (second compound 0.949 µM, first compound 0.316 µM) was 6.16%, the viability, T/C (second compound 0.949 µM, first compound 1 µM) was 3.21% and the viability, T/C (second compound 3 µM, first compound 0.00316 µM) was 2.42%. For the same compound, the viability, T/C (second compound 3 µM, first compound 0.01 µM) was 2.83%, the viability, T/C (second compound 3 µM, first compound 0.0316 µM) was 2.95% and the viability, T/C (second compound 3 µM, first compound 0.1 µM) was 2.31%. The viability, T/C (second compound 3 µM, first compound 0.316 µM) was 2.12% and the viability, T/C (second compound 3 µM, first compound 1 µM) was 4.53%.

With `NC(=O)C(=Cn1cnc(-c2cc(C(F)(F)F)cc(C(F)(F)F)c2)n1)c1cncnc1` + Cc1c(S(C)(=O)=O)c(-c2cc(F)cc(N3CCN(c4ccc(NS(=O)(=O)c5ccc(NC(CCN6CCC(C(=O)OCCCP(=O)(O)O)CC6)CSc6ccccc6)c(S(=O)(=O)C(F)(F)F)c5)cc4)CC3)c2)c(-c2ccc(Cl)cc2)n1C(C)C the IC50 (second compound 0.1 µM) was 17.9 nM, the IC50 (second compound 0.316 µM) was 18.3 nM and the IC50 (second compound 1 µM) was 13.6 nM. For the same compound, the IC50 (second compound 3.16 µM) was 15.1 nM, the IC50 (second compound 10 µM) was 13.3 nM and the viability, T/C (second compound 0.1 µM, first compound 0.000949 µM) was 87.7%. It also gave a viability, T/C (second compound 0.1 µM, first compound 0.003 µM) of 86%, a viability, T/C (second compound 0.1 µM, first compound 0.00949 µM) of 65.4% and a viability, T/C (second compound 0.1 µM, first compound 0.03 µM) of 37.4%. The viability, T/C (second compound 0.1 µM, first compound 0.0949 µM) was 9.64%, the viability, T/C (second compound 0.1 µM, first compound 0.3 µM) was 0.51% and the viability, T/C (second compound 0.316 µM, first compound 0.000949 µM) was 99.8%. The viability, T/C (second compound 0.316 µM, first compound 0.003 µM) was 83.5%, the viability, T/C (second compound 0.316 µM, first compound 0.00949 µM) was 71.9% and the viability, T/C (second compound 0.316 µM, first compound 0.03 µM) was 36.1%. For the same compound, the viability, T/C (second compound 0.316 µM, first compound 0.0949 µM) was 6%, the viability, T/C (second compound 0.316 µM, first compound 0.3 µM) was 0.34% and the viability, T/C (second compound 1 µM, first compound 0.000949 µM) was 96.1%. The viability, T/C (second compound 1 µM, first compound 0.003 µM) was 80%, the viability, T/C (second compound 1 µM, first compound 0.00949 µM) was 61.3% and the viability, T/C (second compound 1 µM, first compound 0.03 µM) was 30%. It also gave a viability, T/C (second compound 1 µM, first compound 0.0949 µM) of 5.9%, a viability, T/C (second compound 1 µM, first compound 0.3 µM) of 0.23% and a viability, T/C (second compound 3.16 µM, first compound 0.000949 µM) of 91.1%. For the same compound, the viability, T/C (second compound 3.16 µM, first compound 0.003 µM) was 84.3%, the viability, T/C (second compound 3.16 µM, first compound 0.00949 µM) was 68.1% and the viability, T/C (second compound 3.16 µM, first compound 0.03 µM) was 24%. For the same compound, the viability, T/C (second compound 3.16 µM, first compound 0.0949 µM) was 2.17%, the viability, T/C (second compound 3.16 µM, first compound 0.3 µM) was 0.24% and the viability, T/C (second compound 10 µM, first compound 0.000949 µM) was 84.9%. The viability, T/C (second compound 10 µM, first compound 0.003 µM) was 89.6%, the viability, T/C (second compound 10 µM, first compound 0.00949 µM) was 56.5% and the viability, T/C (second compound 10 µM, first compound 0.03 µM) was 26.9%. The viability, T/C (second compound 10 µM, first compound 0.0949 µM) was 1.88% and the viability, T/C (second compound 10 µM, first compound 0.3 µM) was 0.28%.
